Results reported in patent US20230114627A1, “COMPOSITION COMPRISING A METAL ASCORBO-CAMPHORATE COMPOUND AND METHOD FOR PREVENTION AND/OR TREATMENT OF PAPILLOMAVIRUS INFECTIONS” (MGB PHARMA Inc., priority 2020, published 2023).

System: HEC-1A cells
Test: Cytokine/chemokine MultiPlex assay (BioPlex 200) of HEC-1A secretion
Type: cell-based
Settings: 24 hours
Text: In the model as provided in this example, a method to assess the pro-inflammatory character of antivirals intended to be applied as mucosal topicals was used.
Epithelial cells are capable of secreting a set of molecules called cytokines and chemokines, which are responsible for the recruitment and activation of immune cells at the site of secretion. This process can be deleterious in the context of sexual transmission of HIV-1 because the recruited cells are the preferred targets of the virus. […] A microbicide candidate should therefore not promote inflammation by activating the production of this type of molecule by the cells directly in contact with the substance (epithelial cells). These secretions can be deleterious in the context of sexual transmission of HIV-1 or HPV and other papillomaviruses because the recruited cells are the preferred targets of the virus. A microbicide candidate must thus not promote inflammation by activating the production of these types of molecules by the cells in contact with the substance (epithelial cells).
After 24 hours of incubation, a panel of 48 inflammation-related cytokines/chemokines is assayed by MultiPlex (BioPlex 200 BioRad) in the basal medium.

Which CTACK (0 μM) does the source give for zinc tetra-ascorbo-camphorate [C14] here?
The CTACK was 4.29 pg/mL.

What about the Eotaxin (0 μM) of the same substance?
Its Eotaxin is 0.87 pg/mL.

What about the FGF (0 μM) of the same substance?
Its FGF is 1.515 pg/mL.

What about the G-CSF (0 μM) of the same substance?
The G-CSF was 1.885 pg/mL.

And the GM-CSF (0 μM)?
Its GM-CSF is 7.005 pg/mL.

What about the GROα (0 μM) of the same substance?
The GROα was 2.75 pg/mL.

And the HGF (0 μM)?
Its HGF is 3.63 pg/mL.

What about the IFN-α2 (0 μM) of the same substance?
The IFN-α2 was 4.08 pg/mL.

What about the IFN-γ (0 μM) of the same substance?
The IFN-γ was 94.255 pg/mL.

What about the IL-1rα (0 μM) of the same substance?
The IL-1rα was 18.105 pg/mL.

What about the IL-1α (0 μM) of the same substance?
The IL-1α was 0 pg/mL.

And the IL-1β (0 μM)?
Its IL-1β is 0.335 pg/mL.

And the IL-2 (0 μM)?
The IL-2 was 0.25 pg/mL.

And the IL-2rα (0 μM)?
Its IL-2rα is 4.06 pg/mL.

And the IL-3 (0 μM)?
The IL-3 was 6.785 pg/mL.

What about the IL-4 (0 μM) of the same substance?
Its IL-4 is 0.16 pg/mL.

What about the IL-5 (0 μM) of the same substance?
Its IL-5 is 0 pg/mL.

And the IL-6 (0 μM)?
The IL-6 was 0.435 pg/mL.

And the IL-7 (0 μM)?
The IL-7 was 3.95 pg/mL.

And the IL-8 (0 μM)?
The IL-8 was 971.01 pg/mL.

And the IL-9 (0 μM)?
The IL-9 was 25.865 pg/mL.

And the IL-10 (0 μM)?
The IL-10 was 3.085 pg/mL.

And the IL-12 (0 μM)?
The IL-12 was 98.495 pg/mL.

And the IL-12ρ40 (0 μM)?
Its IL-12ρ40 is 0 pg/mL.

And the IL-13 (0 μM)?
Its IL-13 is 3.34 pg/mL.

What about the IL-15 (0 μM) of the same substance?
Its IL-15 is 0 pg/mL.

What about the IL-16 (0 μM) of the same substance?
The IL-16 was 0 pg/mL.

And the IL-17 (0 μM)?
The IL-17 was 0 pg/mL.

And the IL-18 (0 μM)?
Its IL-18 is 0 pg/mL.

What about the IP-10 (0 μM) of the same substance?
Its IP-10 is 6.19 pg/mL.

What about the LIF (0 μM) of the same substance?
The LIF was 0 pg/mL.

And the M-CSF (0 μM)?
Its M-CSF is 3.725 pg/mL.

What about the MCP-1 (0 μM) of the same substance?
The MCP-1 was 7.26 pg/mL.

What about the MCP-3 (0 μM) of the same substance?
The MCP-3 was 0 pg/mL.

And the MIF (0 μM)?
Its MIF is 6.92 pg/mL.

What about the MIG (0 μM) of the same substance?
Its MIG is 3.09 pg/mL.

What about the MIP-1α (0 μM) of the same substance?
Its MIP-1α is 2.25 pg/mL.

What about the MIP-1β (0 μM) of the same substance?
Its MIP-1β is 1.32 pg/mL.

What about the PDGF-β (0 μM) of the same substance?
The PDGF-β was 1.235 pg/mL.

And the RANTES (0 μM)?
The RANTES was 12.86 pg/mL.

And the SCF (0 μM)?
Its SCF is 0 pg/mL.

And the SCGF-β (0 μM)?
Its SCGF-β is 242.36 pg/mL.

And the SDF-1α (0 μM)?
Its SDF-1α is 13.03 pg/mL.

What about the TNF-α (0 μM) of the same substance?
Its TNF-α is 4.9 pg/mL.

What about the TNF-β (0 μM) of the same substance?
Its TNF-β is 0 pg/mL.

What about the TRAIL (0 μM) of the same substance?
The TRAIL was 3.43 pg/mL.

What about the VEGF (0 μM) of the same substance?
Its VEGF is 1384.84 pg/mL.

And the β-NGF (0 μM)?
Its β-NGF is 1.04 pg/mL.

And the “effect on production of the 48 cytokines/chemokines” value (1 μM to 500 μM)?
The value was “did not affect the production”.

What about the CTACK (5 μM) of the same substance?
Its CTACK is 4.29 pg/mL.

And the Eotaxin (5 μM)?
Its Eotaxin is 0 pg/mL.

What about the FGF (5 μM) of the same substance?
Its FGF is 1.415 pg/mL.

What about the G-CSF (5 μM) of the same substance?
The G-CSF was 1.99 pg/mL.

And the GM-CSF (5 μM)?
Its GM-CSF is 6.24 pg/mL.

And the GROα (5 μM)?
The GROα was 0 pg/mL.

And the HGF (5 μM)?
The HGF was 5.43 pg/mL.

What about the IFN-α2 (5 μM) of the same substance?
Its IFN-α2 is 3.58 pg/mL.

What about the IFN-γ (5 μM) of the same substance?
The IFN-γ was 95.43 pg/mL.

What about the IL-1rα (5 μM) of the same substance?
Its IL-1rα is 10.215 pg/mL.

What about the IL-1α (5 μM) of the same substance?
Its IL-1α is 0 pg/mL.

What about the IL-1β (5 μM) of the same substance?
Its IL-1β is 0.31 pg/mL.

And the IL-2 (5 μM)?
Its IL-2 is 0.105 pg/mL.

What about the IL-2rα (5 μM) of the same substance?
The IL-2rα was 4.29 pg/mL.

And the IL-3 (5 μM)?
The IL-3 was 6.785 pg/mL.

What about the IL-4 (5 μM) of the same substance?
Its IL-4 is 0.05 pg/mL.

And the IL-5 (5 μM)?
The IL-5 was 0 pg/mL.

What about the IL-6 (5 μM) of the same substance?
Its IL-6 is 0.34 pg/mL.

What about the IL-7 (5 μM) of the same substance?
Its IL-7 is 3.38 pg/mL.

And the IL-8 (5 μM)?
Its IL-8 is 941.46 pg/mL.

What about the IL-9 (5 μM) of the same substance?
Its IL-9 is 25.535 pg/mL.

What about the IL-10 (5 μM) of the same substance?
Its IL-10 is 3.395 pg/mL.

And the IL-12 (5 μM)?
The IL-12 was 98.855 pg/mL.

What about the IL-12ρ40 (5 μM) of the same substance?
Its IL-12ρ40 is 0 pg/mL.

And the IL-13 (5 μM)?
The IL-13 was 4.8 pg/mL.

What about the IL-15 (5 μM) of the same substance?
The IL-15 was 0 pg/mL.

And the IL-16 (5 μM)?
Its IL-16 is 0 pg/mL.

What about the IL-17 (5 μM) of the same substance?
Its IL-17 is 0 pg/mL.

What about the IL-18 (5 μM) of the same substance?
The IL-18 was 0 pg/mL.

What about the IP-10 (5 μM) of the same substance?
Its IP-10 is 4.855 pg/mL.

What about the LIF (5 μM) of the same substance?
The LIF was 0 pg/mL.

What about the M-CSF (5 μM) of the same substance?
The M-CSF was 4.7 pg/mL.

What about the MCP-1 (5 μM) of the same substance?
Its MCP-1 is 5.105 pg/mL.

And the MCP-3 (5 μM)?
Its MCP-3 is 0 pg/mL.

And the MIF (5 μM)?
Its MIF is 2.735 pg/mL.

What about the MIG (5 μM) of the same substance?
The MIG was 3.76 pg/mL.

And the MIP-1α (5 μM)?
The MIP-1α was 2.105 pg/mL.

What about the MIP-1β (5 μM) of the same substance?
The MIP-1β was 1.09 pg/mL.

And the PDGF-β (5 μM)?
The PDGF-β was 0.865 pg/mL.

What about the RANTES (5 μM) of the same substance?
The RANTES was 12.27 pg/mL.

And the SCF (5 μM)?
Its SCF is 0 pg/mL.

And the SCGF-β (5 μM)?
Its SCGF-β is 258.645 pg/mL.

And the SDF-1α (5 μM)?
The SDF-1α was 13.03 pg/mL.

And the TNF-α (5 μM)?
Its TNF-α is 5.5 pg/mL.

And the TNF-β (5 μM)?
Its TNF-β is 0 pg/mL.

And the TRAIL (5 μM)?
Its TRAIL is 4.21 pg/mL.

What about the VEGF (5 μM) of the same substance?
The VEGF was 1240.71 pg/mL.

And the β-NGF (5 μM)?
Its β-NGF is 0.95 pg/mL.

What about the CTACK (10 μM) of the same substance?
Its CTACK is 3.45 pg/mL.

And the Eotaxin (10 μM)?
Its Eotaxin is 0 pg/mL.

And the FGF (10 μM)?
The FGF was 1.53 pg/mL.

And the G-CSF (10 μM)?
The G-CSF was 1.99 pg/mL.

What about the GM-CSF (10 μM) of the same substance?
The GM-CSF was 6.65 pg/mL.

And the GROα (10 μM)?
The GROα was 0 pg/mL.

What about the HGF (10 μM) of the same substance?
The HGF was 5.43 pg/mL.

And the IFN-α2 (10 μM)?
The IFN-α2 was 4.08 pg/mL.

And the IFN-γ (10 μM)?
Its IFN-γ is 76.375 pg/mL.

And the IL-1rα (10 μM)?
The IL-1rα was 14.085 pg/mL.

What about the IL-1α (10 μM) of the same substance?
The IL-1α was 0 pg/mL.

And the IL-1β (10 μM)?
The IL-1β was 0.33 pg/mL.

What about the IL-2 (10 μM) of the same substance?
Its IL-2 is 0.305 pg/mL.

And the IL-2rα (10 μM)?
Its IL-2rα is 3.825 pg/mL.

What about the IL-3 (10 μM) of the same substance?
Its IL-3 is 6.14 pg/mL.

What about the IL-4 (10 μM) of the same substance?
Its IL-4 is 0.235 pg/mL.

And the IL-5 (10 μM)?
The IL-5 was 0 pg/mL.

And the IL-6 (10 μM)?
The IL-6 was 0.575 pg/mL.

What about the IL-7 (10 μM) of the same substance?
Its IL-7 is 3.665 pg/mL.

What about the IL-8 (10 μM) of the same substance?
Its IL-8 is 1115.205 pg/mL.

What about the IL-9 (10 μM) of the same substance?
The IL-9 was 26.025 pg/mL.

And the IL-10 (10 μM)?
Its IL-10 is 3.17 pg/mL.

What about the IL-12 (10 μM) of the same substance?
Its IL-12 is 103.16 pg/mL.
